Laboratory results from ChEMBL document CHEMBL2062380, “Discovery of a novel pyrrole derivative 1-[5-(2-fluorophenyl)-1-(pyridin-3-ylsulfonyl)-1H-pyrrol-3-yl]-N-methylmethanamine fumarate (TAK-438) as a potassium-competitive acid blocker (P-CAB)” (J Med Chem, 2012).
Where a name gives a salt, the structure may show the parent alone. Active and inactive are the calls of the source. The calls are words filed in the database; no cut-off is given here.

Assays:
[1] = Lipophilicity, log D of compound at pH 7.4; type: physicochemical; conditions: buffer
[2] = Inhibition of swine H+/K+-ATPase after 30 mins by colorimetry; parameters: species or system Sus scrofa
Rattus norvegicus [3] = test: Inhibition of histamine-induced gastric acid secretion in pylorus-ligated Sprague Dawley rat at 1 mg/kg, iv administered 3 mins prior to histamine challenge measured after 3 hrs; type: functional; conditions: Stomach
Rattus norvegicus [4] = test: Inhibition of histamine-induced gastric acid secretion in pylorus-ligated Sprague-Dawley rat at 8 mg/kg, po measured after 3 hrs post histamine challenge; type: functional, organism-based; parameters: dose 8 mg/kg; conditions: Stomach
Canis familiaris [5] = test: Inhibition histamine-induced gastric acid secretion in Heidenhain-pouch dog at 1 mg/kg, po administered 1 tp 48 hrs prior histamine challenge measured for 3 consecutive 30 mins time period after compound dosing; type: functional, organism-based; parameters: dose 1 mg/kg; conditions: Canis lupus familiaris, Stomach
Rattus norvegicus [6] = test: Inhibition of histamine-induced gastric acid secretion in po dosed pylorus-ligated Sprague-Dawley rat measured after 3 hrs post histamine challenge; type: functional, organism-based; conditions: Stomach
Rattus norvegicus [7] = test: Complete inhibition of histamine-induced gastric acid secretion in pylorus-ligated Sprague Dawley rat at 4 mg/kg, po measured after 3 hrs post histamine challenge; type: functional, organism-based; parameters: dose 4 mg/kg; conditions: Stomach
Canis familiaris [8] = test: Inhibition histamine-induced gastric acid secretion in Heidenhain-pouch dog at 1 mg/kg, po administered 1 day post histamine challenge measured for 3 consecutive 30 mins time period after compound dosing; type: functional, organism-based; parameters: dose 1 mg/kg; conditions: Canis lupus familiaris, Stomach
Canis familiaris [9] = test: Inhibition histamine-induced gastric acid secretion in Heidenhain-pouch dog at 1 mg/kg, po measured after 2 days; type: functional, organism-based; parameters: dose 1 mg/kg; conditions: Canis lupus familiaris, Stomach

| SMILES | logD [1] | IC50 [2] | inhibition in vivo at 1 mg/kg (Rattus norvegicus [3]) | further results |
| --- | --- | --- | --- | --- |
| CNCc1cc(-c2cccc(F)c2)n(S(=O)(=O)c2cccnc2)c1 | 1 | 20 nM | 92% |  |
| CNCc1cc(-c2ccccc2CO)n(S(=O)(=O)c2cccnc2)c1 | -0.3 | 2200 nM |  |  |
| CNCc1cc(-c2ccccc2)n(S(=O)(=O)c2ccccn2)c1 |  | 170 nM |  |  |
| CNCc1cc(-c2ccccc2)n(S(=O)(=O)c2ccc(C)nc2)c1 | 1 | 34 nM | 83% |  |
| CNCc1cc(-c2ccccc2C#N)n(S(=O)(=O)c2cccnc2)c1 | -0.2 | 230 nM | 68% |  |
| CNCc1cc(-c2ccccc2)n(S(=O)(=O)c2ccc(OC)nc2)c1 | 1.7 | 13 nM | 95% |  |
| CNCc1cc(-c2ccccc2C)n(S(=O)(=O)c2cccnc2)c1 | 1 | 46 nM | 95% |  |
| Cc1c(OCC(F)(F)F)ccnc1C[S+]([O-])c1nc2ccccc2[nH]1 (stereo not drawn) |  |  |  | inhibition (Rattus norvegicus [4]): inactive; inhibition (Canis familiaris [5]): Active |
| CNCc1cc(-c2ccccc2Cl)n(S(=O)(=O)c2cccnc2)c1 | 0.7 | 17 nM | 97% |  |
| CNCc1cc(-c2ccccc2)n(S(=O)(=O)c2cccc(OC)c2)c1 |  | 11 nM |  |  |
| CNCc1cc(-c2ccccc2)n(S(=O)(=O)c2cccc(S(C)(=O)=O)c2)c1 |  | 78 nM |  |  |
| CNCc1cc(-c2ccccc2)n(S(=O)(=O)c2ccc(C#N)nc2)c1 | 1.4 | 110 nM | 17% |  |
| CNCc1cc(-c2ccccc2)n(S(=O)(=O)c2cccs2)c1 | 1.2 | 51 nM | 69% |  |
| CNCc1cc(-c2ccc(F)cc2)n(S(=O)(=O)c2cccnc2)c1 | 1 | 46 nM | 85% |  |
| CNCc1cc(-c2ccccc2)n(S(=O)(=O)c2cccnc2)c1 | 0.7 | 16 nM | 85% |  |
| CNCc1cc(-c2ccccc2C(F)(F)F)n(S(=O)(=O)c2cccnc2)c1 | 0.8 | 75 nM | 92% |  |
| CNCc1cc(-c2ccccc2)n(S(=O)(=O)c2ccc(OC)cc2)c1 | 1.5 | 30 nM | 95% |  |
| CNCc1cc(-c2ccccc2)n(S(=O)(=O)c2ccsc2)c1 | 1.1 | 16 nM | 55% |  |
| CNCc1cc(-c2ccccc2F)n(S(=O)(=O)c2cccnc2)c1 [VONOPRAZAN FUMARATE] | 0.4 | 19 nM | 98% | inhibition (Rattus norvegicus [6]): Dose-dependent effect; inhibition (Rattus norvegicus [7]): Active; inhibition (Canis familiaris [8]): Active; inhibition (Canis familiaris [9]): Active |
